Like-named read-outs stand apart in the source and are kept apart here.
Assays:
human Nav1.7 = target: T1, human Nav1.7 (Homo sapiens, UniProt Q15858); experiment: Voltage clamp of heterologously expressed Nav1.7; format: cell-based; details: Hill fit, printed for ND-Tam and 4OH-Tam together
T1 construct: expressed in transfected cells; host or cells: HEK cells, transient transfection with lipofectamine
Method: (§1) While no clear drug-receptor interactions were determined within Siteout, the S6 E220 side chains formed hydrogen bond interactions with the ether and amine moieties of the ND-Tam molecules found at Sitein. […] After structural alignment of the crystalized NavMs-Tam complex with the cryo EM Nav1.7+b1+b2 channel coordinates, the S6 side chain hydroxyl in DII (S969) and the carboxyl side chains in DIII (E1458) and DIV (D1761) observed in the human channel were nearly superimposable with E220 of the prokaryotic Nav subunits. In addition, the distances from the drug ether and amines were within acceptable distances (2.8-3.1 Å) for hydrogen bond formation for all three site chains (FIG. 2B). […]
(§2) Plasmids encoding the human version of channels Nav1.1, 1.6, and 1.7 were co-transfected with TRES GFP into HEK cell lines for whole-cell voltage clamp studies (American Type Culture Collection). […] Plasma membrane currents were recorded using borosilicate glass electrodes polished to resistances of […]. Sodium currents conducted by heterologously expressed Navs were recorded using the following solutions (in mM). […] Endogenous DRG sodium currents were recorded using an intracellular solution consisting of 70 CsCl, 70 CsF, 2 EGTA, 5 HEPES, and 5 NaCl; the pH was adjusted to 7.4 with CsOH. […]

[1] = target: Nav1.7 DII S969A and DIV D1761A (Homo sapiens, UniProt Q15858); experiment: Voltage clamp of Nav1.7 with alanine substitutions in DII and DIV; format: cell-based; details: range over DII S969A and DIV D1761A
Sequence of Nav1.7 DII S969A and DIV D1761A (Q15858 whole entry S969A, form open): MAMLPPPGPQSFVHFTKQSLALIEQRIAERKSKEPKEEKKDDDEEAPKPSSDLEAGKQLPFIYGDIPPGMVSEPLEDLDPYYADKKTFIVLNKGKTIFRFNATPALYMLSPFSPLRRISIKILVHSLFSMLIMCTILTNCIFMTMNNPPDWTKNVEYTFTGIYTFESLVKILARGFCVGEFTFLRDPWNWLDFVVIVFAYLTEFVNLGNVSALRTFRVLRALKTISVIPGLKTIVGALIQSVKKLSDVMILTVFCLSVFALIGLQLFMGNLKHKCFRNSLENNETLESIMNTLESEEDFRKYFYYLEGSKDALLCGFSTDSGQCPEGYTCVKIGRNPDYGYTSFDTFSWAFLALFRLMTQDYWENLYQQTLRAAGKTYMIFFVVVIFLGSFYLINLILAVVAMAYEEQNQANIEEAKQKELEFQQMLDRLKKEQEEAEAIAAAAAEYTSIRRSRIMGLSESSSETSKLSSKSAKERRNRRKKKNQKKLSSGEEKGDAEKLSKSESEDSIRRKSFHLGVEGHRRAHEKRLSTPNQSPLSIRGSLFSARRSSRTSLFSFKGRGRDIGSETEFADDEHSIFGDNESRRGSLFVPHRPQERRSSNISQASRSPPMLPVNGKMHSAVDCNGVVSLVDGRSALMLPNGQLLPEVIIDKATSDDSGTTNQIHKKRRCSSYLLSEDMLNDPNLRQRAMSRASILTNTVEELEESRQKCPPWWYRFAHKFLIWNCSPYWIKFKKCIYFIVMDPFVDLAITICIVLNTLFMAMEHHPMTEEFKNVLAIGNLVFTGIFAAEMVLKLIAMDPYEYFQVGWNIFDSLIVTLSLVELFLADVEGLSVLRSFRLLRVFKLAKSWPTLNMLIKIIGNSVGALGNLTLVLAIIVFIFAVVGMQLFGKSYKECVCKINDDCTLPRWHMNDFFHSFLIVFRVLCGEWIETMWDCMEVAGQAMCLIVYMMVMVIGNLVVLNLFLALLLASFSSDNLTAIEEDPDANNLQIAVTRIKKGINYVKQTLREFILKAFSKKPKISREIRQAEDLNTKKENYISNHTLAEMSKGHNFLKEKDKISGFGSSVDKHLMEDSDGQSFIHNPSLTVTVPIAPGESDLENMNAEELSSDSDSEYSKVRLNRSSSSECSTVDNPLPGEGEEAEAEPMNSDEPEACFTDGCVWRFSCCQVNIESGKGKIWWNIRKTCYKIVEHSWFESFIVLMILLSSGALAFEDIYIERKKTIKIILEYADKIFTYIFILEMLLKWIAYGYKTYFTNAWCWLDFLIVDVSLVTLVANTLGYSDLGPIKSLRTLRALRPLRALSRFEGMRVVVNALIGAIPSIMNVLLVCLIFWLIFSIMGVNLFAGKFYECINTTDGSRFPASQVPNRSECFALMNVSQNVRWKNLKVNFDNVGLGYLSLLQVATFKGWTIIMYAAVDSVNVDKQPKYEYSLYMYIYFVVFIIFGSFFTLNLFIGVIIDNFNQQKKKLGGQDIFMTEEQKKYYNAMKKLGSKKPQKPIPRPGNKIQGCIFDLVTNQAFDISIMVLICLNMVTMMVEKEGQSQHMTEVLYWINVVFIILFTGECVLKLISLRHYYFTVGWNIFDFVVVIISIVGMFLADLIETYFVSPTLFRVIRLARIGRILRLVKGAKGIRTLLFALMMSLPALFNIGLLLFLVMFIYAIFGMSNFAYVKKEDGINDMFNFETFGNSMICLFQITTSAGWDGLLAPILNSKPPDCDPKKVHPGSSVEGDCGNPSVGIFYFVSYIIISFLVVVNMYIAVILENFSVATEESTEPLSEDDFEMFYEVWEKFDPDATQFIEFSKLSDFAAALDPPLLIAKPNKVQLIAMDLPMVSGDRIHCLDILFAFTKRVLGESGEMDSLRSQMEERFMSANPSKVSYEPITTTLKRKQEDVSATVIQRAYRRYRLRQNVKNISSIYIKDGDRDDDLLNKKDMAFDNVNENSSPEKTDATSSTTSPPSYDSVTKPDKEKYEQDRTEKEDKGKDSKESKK
Method: as §1, §2

[2] = target: T2, Nav1.7 D1458A in domain III (Homo sapiens, UniProt Q15858, D1458A); experiment: Voltage clamp of Nav1.7 with alanine substitution in domain III; format: cell-based
T2 construct: expressed in transfected cells
T2 sequence (Q15858 whole entry D1458A, the tested form may be a part): as the sequence (Q15858 whole entry S969A, form open) above, with A969S, D1458A counted along it
Method: as §1, §2

[3] = test system: T3, endogenous voltage-gated sodium channels expressed in murine DRG neurons; experiment: Whole cell voltage clamp of endogenous sodium currents (INa) in cultured DRG sensory neurons; format: cell-based, mouse; details: −40 mV holding potential, read-out: ND-Tam potency against DRG INa (IC50)
T3 construct: other: DRG neurons, −40 mV holding potential

[4] = test system: T4, endogenous voltage-gated sodium channels expressed in murine DRG neurons; experiment: as above; format: cell-based, mouse; details: −60 mV holding potential, read-out: ND-Tam potency against DRG INa (IC50)
T4 construct: other: waiting for 5 minutes after removal; ND-Tam potency against DRG INa (IC50); other: DRG neurons, −60 mV holding potential; other: 3 μM ND-Tam treatment; other: DR

T1 sequence (Q15858 whole entry): as the sequence (Q15858 whole entry S969A, form open) above, with A969S counted along it

- slope of concentration-dependence (human Nav1.7): 2.1
- slope of concentration-dependence [1]: 1.3-1.4
- slope of concentration-dependence [2]: 2.2
- IC50 [3]: 3.9 nM
- IC50 [4]: 112 nM
SMILES: CC/C(=C(\c1ccccc1)c1ccc(OCCNC)cc1)c1ccccc1 [ND-Tam, 2-[4-[(Z)-1,2-diphenylbut-1-enyl]phenoxy]-N-methylethanamine]

Source: patent publication US20230141863A1, “Small Molecule Inhibitors Targeting the Sodium Channel Tamoxifen Receptor and Uses Thereof” (Northwestern University, priority 2021, published 2023)
